{"source": "patent US12306191B2", "about": "“Composition for diagnosis of degenerative neurological diseases” (KYUNGPOOK NATIONAL UNIVERSITY INDUSTRY—ACADEMIC COOPERATION …, priority 2018, dated 2025)", "key": {"APP/PS1 mice [1]": {"tested_on": "APP/PS1 mice", "test": "Immunofluorescence of microglia (Iba1) and astrocytes (GFAP) in brain cortex of injected APP/PS1 mice", "assay_type": "in vivo, mouse", "conditions": "7-month-old APP/PS1 mice, i.p. daily 4 weeks, 5 mg/kg N-acetyl sphingosine, 1 mg/kg FTY720, 3 uM S1P; for microglia compared to APP/PS1 mice: FIG. 9a; for astrocytes compared to APP/PS1 mice: FIG. 9b", "description": "(§1) After the cerebrum and the hippocampus of a mouse were immobilized, anti-20G10 against amyloid-β (Aβ) 42 (mouse, 1:1000) and anti-G30 against Aβ 40 (rabbit, 1:1000), anti-MAP2 (chicken, 1:2000), anti-Synaptophysin (mouse, 1:100), anti-Synapsin1 (rabbit, 1:500), anti-PSD95 (mouse, 1:100), anti-Iba-1 (rabbit, 1:500), and anti-GFAP (rabbit, 1:500) were incubated together. The sites were analyzed using a confocal laser scanning microscope or an Olympus BX51 microscope equipped with Fluoview SV1000 imaging software (Olympus FV1000, Japan). Percentages of areas of the stained sites to an area of total tissues were quantified using Metamorph software (Molecular Devices).\n(§2) In order to measure neuroinflammatory resolution factor, nerve cells from the mouse's cerebrum were incubated and then treated with 10 nM N-acetyl sphingosine 1 phsosphate (Toronto Research chemicals, C262710) and N-acetyl sphingosine (Sigma, 01912) to prepare CM. For COX2 acetylation analysis, nerve cells were incubated from the mouse's cerebrum and treated with 2uCi [^14C] N-acetyl sphingosine (ARC, ARC1024) and then prepared. In addition, for an in vivo experiment, 5 mg/kg N-acetyl sphingosine (Sigma, 01912), 1 mg/kg FTY720, and 3 uM S1P were injected into 7-month-old APP/PS1 mice daily for 4 weeks through intraperitoneal injection.\nThe present inventors confirmed AD lesions by injecting N-acetyl sphingosine, one of COX2 acetylating agents identified through the above experiment, into an APP/PS1 animal model. First, in order to determine an effect of N-acetyl sphingosine on neuroinflammatory response by secreting the neuroinflammatory resolution factor, changes in microglia and astrocytes were observed. […] However, when sphingosine derivatives FTY720 and S1P were injected, there was no difference in the activity of microglia and astrocytes compared to the Alzheimer's animal model, and there was no effect of reducing Aβ deposition and improving memory (FIGS. 9a and 9b)."}, "APP/PS1 nerve cells": {"tested_on": "APP/PS1 nerve cells", "test": "Secretion of neuroinflammatory resolution factor in APP/PS1 nerve cells treated with COX2 acetylating agent", "assay_type": "cell-based, mouse", "conditions": "10 nM, FIG. 8b", "description": "A commercially available ELISA kit (Biosource) was used, and the hemispheres of mice were homogenized and added in a buffer containing 0.02 M of guanidine to prepare a sample for Aβ ELISA. In order to measure neuroinflammatory resolution factor, nerve cells from the mouse cerebrum were incubated to prepare conditioned media (CM). Thereafter, according to the manufacturer's manual, ELISA for Aβ and SPM was performed.\nas §2\nFirst, in order to confirm whether the selected compounds promote the secretion of neuroinflammatory resolution factor in nerve cells, APP/PS1 nerve cells were treated with N-acetyl sphingosine 1 phsosphate or N-acetyl sphingosine, and then the expression levels of the neuroinflammatory resolution factor were confirmed. As a result, it was confirmed that the expression levels of LxA4 and RvE1 in nerve cells of APP/PS1 mice were recovered when treated with N-acetyl sphingosine 1 phsosphate or N-acetyl sphingosine (FIG. 8b)."}, "COX2 [2]": {"tested_on": "COX2", "test": "COX2 acetylation analysis with [14C] N-acetyl sphingosine", "assay_type": "cell-based, mouse", "conditions": "2uCi [14C] N-acetyl sphingosine; FIG. 8c", "description": "as §2"}, "COX2 [3]": {"target": "T1, COX2 (Homo sapiens, UniProt P35354)", "T1 sequence (P35354 18-604)": "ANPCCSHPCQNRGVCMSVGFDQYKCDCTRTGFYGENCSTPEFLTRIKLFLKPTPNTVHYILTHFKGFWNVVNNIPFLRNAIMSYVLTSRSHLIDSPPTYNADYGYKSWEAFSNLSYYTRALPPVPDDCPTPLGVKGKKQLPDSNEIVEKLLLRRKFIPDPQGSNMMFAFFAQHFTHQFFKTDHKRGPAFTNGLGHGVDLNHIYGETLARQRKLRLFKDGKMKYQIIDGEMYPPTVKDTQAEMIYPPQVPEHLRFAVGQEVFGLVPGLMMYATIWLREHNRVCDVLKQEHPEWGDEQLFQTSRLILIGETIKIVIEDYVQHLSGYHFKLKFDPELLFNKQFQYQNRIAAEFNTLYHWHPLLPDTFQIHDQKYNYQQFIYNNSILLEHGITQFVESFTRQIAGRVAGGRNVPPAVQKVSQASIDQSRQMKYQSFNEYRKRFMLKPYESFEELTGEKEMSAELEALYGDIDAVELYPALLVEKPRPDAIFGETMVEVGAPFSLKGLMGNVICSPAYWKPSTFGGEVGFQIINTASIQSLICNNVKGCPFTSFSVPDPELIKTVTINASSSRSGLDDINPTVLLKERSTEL", "test": "LC-MS/MS identification of the acetylation site of COX2", "assay_type": "biochemical", "conditions": "FIG. 8d", "description": "To confirm an acetylation site of COX2, a COX2 enzyme was precipitated with trichroloacetic acid (Merck) and dried. The dried extract was resuspended in 10 μL of a 5 M urea solution, and a 0.1 M ammonium bicarbonate buffer was incubated at 37° C. with 1 μg trypsin (Promega) for 16 hours. Thereafter, the sample was treated with 1 M DTT (GE Healthcare) at room temperature for 1 hour and then alkylated with 1M iodoacetamide (Sigma) for 1 hour. A protein sample was loaded onto a ZORBAX 300SB-C18 column for sequencing. Peptides were identified with BioTools 3.2 SR5 (Bruker Daltonics).\nIn addition, it was confirmed that serine 565 (S565) for a peptide 560-[…]-575 of COX2 was acetylated in the presence of N-acetyl sphingosine (FIG. 8d)."}, "APP/PS1 mice [4]": {"tested_on": "APP/PS1 mice", "test": "Thioflavin S staining of Aβ plaques in brain of injected APP/PS1 mice", "assay_type": "in vivo, mouse", "conditions": "7-month-old APP/PS1 mice, i.p. daily 4 weeks; 5 mg/kg N-acetyl sphingosine, 1 mg/kg FTY720, 3 uM S1P; FIG. 9c", "description": "as §1\nas §2, with “injection. […]” for “injection.”"}, "APP/PS1 mice [5]": {"tested_on": "APP/PS1 mice", "test": "Morris Water Maze test of injected APP/PS1 mice", "assay_type": "in vivo, mouse", "conditions": "7-month-old APP/PS1 mice, i.p. daily 4 weeks; 5 mg/kg N-acetyl sphingosine, 1 mg/kg FTY720, 3 uM S1P; FIG. 9d", "description": "In order to confirm potential effects on learning and memory, Morris water maze (MWM) and fear conditioning tests were performed. In the MWM, the mouse learned a task 4 times a day for 10 days, a platform was removed on day 11, and a probe trial was performed. In the fear conditioning, on day 1, the mouse was added in a conditioning chamber, and sound stimulation (10 kHz, 70 dB) and electrical stimulation (0.3 mA, 1 s) were applied. On day 2, the memory on a space was confirmed without stimulation in the same conditioning chamber as day 1, and on day 3, a memory test for fear was performed when only the sound stimulation was applied in another conditioning chamber. An open field test was performed to evaluate motor ability and immediate activity. In the open field test, the mouse was placed in a quadrangular box for 10 minutes and then overall motor ability and time and distances were measured.\nas §2, with “In addition, for an in vivo experiment, 5 mg/kg N-acetyl sphingosine (Sigma, 01912), 1 mg/kg FTY720, and 3 uM S1P were injected into 7-month-old APP/PS1 mice daily for 4 weeks through intraperitoneal injection.” left out"}, "COX2 [6]": {"target": "T1, COX2", "test": "Western blot of recombinant COX2 protein with ac-S565 antibody after aspirin or N-AS treatment", "assay_type": "biochemical", "conditions": "FIG. 10", "description": "(§3) In addition, a Western blot sample was prepared by reacting a recombinant COX2 protein with aspirin and N-acetyl sphingosine (Sigma, 01912, N-AS). In addition, microglia were isolated from the cerebra of wild-type and APP/PS1 9-month-old mice to prepare a Western blot sample, and microglia (Applied Biologics Materials, USA) were incubated with amyloid beta, and then a Western blot sample was prepared. The prepared Western blot sample was subjected to electrophoresis on a polyacrylamide gel to isolate proteins, transferred to a nitrocellulose filter, and then bound with anti-ac-S565 (rabbit, 1:500), anti-COX2 (rabbit, 1:1,000, Abcam), and anti-actin (mouse, 1:1,000, Santa Cruz) antibodies, and then bands were shaped using secondary antibodies, and quantified and analyzed using ImageJ (National Institutes of Health, USA)."}, "SphK1": {"target": "SphK1 (Homo sapiens, UniProt Q9NYA1)", "sequence (Q9NYA1 whole entry, species assumed)": "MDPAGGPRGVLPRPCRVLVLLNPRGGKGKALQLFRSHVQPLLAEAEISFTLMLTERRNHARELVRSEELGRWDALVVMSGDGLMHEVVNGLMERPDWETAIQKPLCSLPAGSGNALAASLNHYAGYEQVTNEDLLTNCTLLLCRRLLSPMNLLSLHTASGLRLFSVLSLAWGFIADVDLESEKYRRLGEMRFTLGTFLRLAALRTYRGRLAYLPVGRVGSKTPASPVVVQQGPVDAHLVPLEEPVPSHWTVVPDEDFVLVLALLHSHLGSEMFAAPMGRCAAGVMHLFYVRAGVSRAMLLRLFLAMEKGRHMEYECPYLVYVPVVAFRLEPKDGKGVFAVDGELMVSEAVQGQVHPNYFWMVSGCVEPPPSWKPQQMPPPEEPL", "conditions": "read-out: KM of acetyl group binding to SphK1; in the presence of 10 mM sphingosine; FIG. 1a"}, "human-derived microglia [7]": {"tested_on": "human-derived microglia", "test": "Fluorescence immunostaining of COX2 and ac-S565 in human-derived microglia treated with amyloid beta", "assay_type": "cell-based", "conditions": "FIGS. 13a, 13b", "description": "In addition, cerebral tissues of wild-type and APP/PS1 9-month-old mice and human-derived microglia were incubated together with anti-ac-S565 (rabbit, 1:100), anti-COX2 (mouse, 1:500, Thermo Fisher Scientific), and anti-Iba1 (goat, 1:500, Abcam). In the cerebral tissues and the human-derived microglia, percentages of cells stained with anti-ac-S565, anti-COX2 and anti-Iba1 among cells stained with anti-COX2 and anti-Iba1 were quantified and analyzed using MetaMorph (Molecular Devices, USA).\nThe present inventors created a neuroinflammatory environment by treating human-derived microglia with amyloid beta, and then confirmed the level of S565 acetylation of COX2 through fluorescence immunostaining."}, "human-derived microglia [8]": {"tested_on": "human-derived microglia", "test": "Western blotting of COX2 and ac-S565 in human-derived microglia treated with amyloid beta", "assay_type": "cell-based", "conditions": "FIGS. 14a, 14b", "description": "as §3\nThe present inventors created a neuroinflammatory environment by treating human-derived microglia with amyloid beta, and then reconfirmed the level of S565 acetylation of COX2 through Western blotting."}}}
{"compound": "CCCCCCCCc1ccc(CCC(N)(CO)CO)cc1", "note": "[FTY720]", "values": [{"measurement": "microglia compared to APP/PS1 mice", "setting": "APP/PS1 mice [1]", "value": "no difference"}, {"measurement": "astrocytes compared to APP/PS1 mice", "setting": "APP/PS1 mice [1]", "value": "no difference"}]}
{"compound": "CCCCCCCCCCCCC/C=C/[C@@H](O)[C@H](COP(=O)(O)O)NC(C)=O", "note": "[N-acetyl sphingosine 1 phsosphate]", "values": [{"measurement": "expression level of LxA4", "setting": "APP/PS1 nerve cells", "value": "recovered"}, {"measurement": "expression level of RvE1", "setting": "APP/PS1 nerve cells", "value": "recovered"}]}
{"compound": "CCCCCCCCCCCCC/C=C/[C@@H](O)[C@H](CO)NC(C)=O", "note": "[N-acetyl sphingosine]", "values": [{"measurement": "expression level of LxA4", "setting": "APP/PS1 nerve cells", "value": "recovered"}, {"measurement": "expression level of RvE1", "setting": "APP/PS1 nerve cells", "value": "recovered"}, {"measurement": "COX2 acetylation compared with sample mixed with SphK1, acetyl-CoA and sphingosine", "setting": "COX2 [2]", "value": "more acetylation"}, {"measurement": "acetylation of serine 565 (S565) of COX2 peptide 560-575", "setting": "COX2 [3]", "value": "acetylated"}, {"measurement": "microglia compared to APP/PS1 mice", "setting": "APP/PS1 mice [1]", "value": "remarkable decrease"}, {"measurement": "astrocytes compared to APP/PS1 mice", "setting": "APP/PS1 mice [1]", "value": "remarkable decrease"}, {"measurement": "amount of Aβ / Aβ deposition compared to APP/PS1 mice", "setting": "APP/PS1 mice [4]", "value": "significantly lowered"}, {"measurement": "memory and cognition", "setting": "APP/PS1 mice [5]", "value": "improved"}, {"measurement": "ac-S565 band of treated COX2 in Western blot (S565 acetylation)", "setting": "COX2 [6]", "value": "strongly shown"}]}
{"compound": "CCCCCCCCCCCCC/C=C/[C@@H](O)[C@@H](N)COP(=O)(O)O", "note": "[S1P, sphingosine-1-phosphate]", "values": [{"measurement": "microglia compared to APP/PS1 mice", "setting": "APP/PS1 mice [1]", "value": "no difference"}, {"measurement": "astrocytes compared to APP/PS1 mice", "setting": "APP/PS1 mice [1]", "value": "no difference"}, {"measurement": "amount of Aβ / Aβ deposition compared to APP/PS1 mice", "setting": "APP/PS1 mice [4]", "value": "no effect"}, {"measurement": "memory and cognition", "setting": "APP/PS1 mice [5]", "value": "no effect"}]}
{"compound": "CC(=O)SCCNC(=O)CCNC(=O)[C@H](O)C(C)(C)COP(=O)(O)OP(=O)(O)OC[C@H]1O[C@@H](n2cnc3c(N)ncnc32)[C@H](O)[C@@H]1OP(=O)(O)O", "note": "[acetyl-CoA]", "values": [{"measurement": "Km", "setting": "SphK1", "value": 58.2, "unit": "µM"}]}
{"compound": "CC(=O)Oc1ccccc1C(=O)O", "note": "[aspirin]", "values": [{"measurement": "ac-S565 band of treated COX2 in Western blot (S565 acetylation)", "setting": "COX2 [6]", "value": "hardly detected"}]}
{"compound": "amyloid beta: amyloid beta used to treat human-derived microglia to create a neuroinflammatory environment", "values": [{"measurement": "S565 acetylation of COX2 in microglia", "setting": "human-derived microglia [7]", "value": "decreased"}, {"measurement": "expression of COX2 in microglia", "setting": "human-derived microglia [7]", "value": "increased"}, {"measurement": "S565 acetylation of COX2 in microglia", "setting": "human-derived microglia [8]", "value": "decreased"}, {"measurement": "expression of COX2 in microglia", "setting": "human-derived microglia [8]", "value": "increased"}]}
